In patent publication US7713477B2, “Systems and methods for monitoring chemical and biological activities using differential measurements” (priority 2002, dated 2010):

Columns and labels:
concanavalin-A = concanavalin-A (Canavalia ensiformis, UniProt P02866); experiment: Binding of dextran in solution to concanavalin-A immobilized on the measurement probes (FIG. 6); conditions: phosphate buffered saline with calcium and magnesium, physiologic pH and osmolarity; regions 600b and 600c of FIG. 6
Description: A common AC voltage of approximately 40 millivolts and at a frequency of approximately 1 KHz is placed upon measurement probes 313 and 323. The circuit continues across the interface of measurement probes 313 and 323, through the conductive solution in sample chambers 310 and 320, and completed via attachment of signal grounds 314 and 324.
The voltage difference between measurement probes 313 and 317 is placed across the antipodal inputs of the first differential amplifier 221; similarly, the voltage across measurement probes 323 and 327 is placed across antipodal inputs of the second differential amplifier 222. The amplified differential voltages produced by 221 and 222 are fed into DC-converters 224 and 225 (e.g., root-mean-square averaging devices. The outputs 221a and 222a, being now of a DC nature, are input into antipodal inputs of the third differential amplifier 226, the resulting difference signal 227 being measured by a simple voltmeter 400, said voltmeter referenced to the common ground. This voltage is directly proportional to the difference in the voltage drops across the two pairs of measurement probes 313 and 317, and 323 and 327.
FIG. 6 illustrates the result of a second experiment using the monitoring system of FIG. 3B. […]

TF-1 cells [1] = conditions: stated as known, background knowledge; cited from earlier work
TF-1 cells [2] = experiment: Differential response of TF-1 cells stimulated vs un-stimulated, monitoring system of FIG. 8 (FIG. 9A); type: cell-based
Description: In this set of experiments, the monitoring system as shown in FIG. 8 was used to directly compare the activity of a known modification of the extra-cellular environment to controls. In the monitoring system of FIG. 8, two sample chambers (formed a fluid channels) 800a and 800b, along with four ports 801a-d, were fabricated using micromachining techniques on an acrylic substrate. The dimensions of the channels were approximately 250 micrometers wide, 100 micrometers deep, and with a total length of approximately 1.5 centimeters. The substrate was fastened in a water-tight manner, using thin film epoxy, to a pre-fabricated printed circuit board (not explicitly shown), on which eight gold-plated copper conductive traces 820a-d and 830a-d of width approximately 250 micrometers were deposited. Using the monitoring system architecture shown in FIG. 3D, in which the phase meter 223 was not present and DC-converters 224 and 225 comprised a device which converts and AC signal into a DC signal, whose amplitude is roughly the root-mean-square (RMS) of the AC amplitude. […]

TF-1 cells [3] = experiment: Differential response of TF-1 cells against stimuli and controls at one, two and five minutes (FIG. 9B); type: cell-based; conditions: two and five minutes after stimulation, factor 100:1 dilution in d-PBS, 25 microliter into approximately 200 microliters cell suspension
Description: FIG. 9B illustrates a second set of experiments, in which the differential responses of a population of TF-1 cells against numerous stimuli and controls are shown at one minute, two minutes, and five minutes after stimulation. In these experiments, a population of TF-1 cells was fractionated into two portions of equal volume and cell density immediately before the experiment. One of the two fractions received a potential stimulus, and the other a control in the form of a quantity of pure Dulbecco's phosphate buffered saline (d-PBS)equal to the quantity of d-PBS which contained the stimulant. […] Next, a series of factors and interleukins was compared against a reference sample. Each factor was introduced into one of two fractionated volumes containing TF-1 cells, via a 100:1 dilution of factor to d-PBS, followed by a 25 microliter addition of the diluted factor into approximately 200 microliters of the cell suspension. At the same time, the reference population of cells was prepared by adding 25 microliters of d-PBS alone into the second of the two cell fractions. Both fractions were then inserted into their respective channels in the apparatus, wherein said reference population was always inserted in the same channel, and measurements of the differential voltage were taken at pre-defined intervals over a five minute period. After each experiment, both channels were flushed with ˜2 ml of cell-free culture media, to insure that all previous cellular material and any other potential compounds from a given experiment were removed from the channel before the subsequent experiment.

| Molecule | known activity against TF-1 cells (TF-1 cells [1]) | differential response over the three controls (TF-1 cells [3]) | also measured |
| --- | --- | --- | --- |
| dextran | – | – | binding of dextran to immobilized concanavalin-A, shown as new voltage level (concanavalin-A): bound specifically to the immobilized concanavalin-A molecules |
| bovine serum albumin [BSA, reference compound] | known not to affect TF-1 cells | – | – |
| granulocyte-macrophage colony stimulating factor [GM-CSF] | induces cell proliferation in TF-1 cells | significantly larger differential response over the three controls | time at which change in differential response begins (TF-1 cells [2]; AC approximately 10 KHz, thirty minute experiment, change continues nearly monotonic): around eight; differential response of stimulated cells over the control (TF-1 cells [2]; AC frequency approximately 10 KHz, about 2 million cells per milliliter, GM-CSF in quantity to elicit maximum response, followed thirty minutes): show a change in the differential response over the control |
| IL5: interleukin tested on TF-1 cells | – | significantly larger differential response over the three controls | – |
| IL4: interleukin tested on TF-1 cells (protein, UniProt P05112 25-153, looked up) Interleukin-4: HKCDITLQEIIKTLNSLTEQKTLCTELTVTDIFAASKNTTEKETFCRAATVLRQFYSHHEKDTRCLGATAQQFHRHKQLIRFLKRLDRNLWGLAGLNSCPVKEANQSTLENFLERLKTIMREKYSKCSS | – | significantly larger differential response over the three controls | – |
